For 25 compounds, EC50, CC50 and selectivity ratio results are on record in ChEMBL document CHEMBL5236598, “Lead Optimization and Avoidance of Metabolic-perturbing Motif Developing Novel Diarylpyrimidines as Potent HIV-1 NNRTIs” (J Med Chem, 2022).

Series [1] deals with Human immunodeficiency virus 1. The series is described as follows: Antiviral activity against wild type HIV-1 IIIB infected in human MT4 cells assessed as protection against virus-induced cytopathic effect incubated for 5 days by MTT assay. The following applies: Human immunodeficiency virus 1, IIIB, MT4, 120 h. The series is classed as functional, organism-based.
The subject of series [2] is Human immunodeficiency virus 1. The series is described as follows: Antiviral activity against HIV-1 RES056 harboring RT K103N/Y181C double mutant infected in human MT4 cells assessed as protection against virus-induced cytopathic effect incubated for 5 days by MTT assay. It is filed as functional, organism-based. The settings on record: Human immunodeficiency virus 1, RES056, MT4, 120 h. In general terms: Protection from cytopathic effect is a common read-out in antiviral testing.

A short description of series [3]: Cytotoxicity against human MT4 cells assessed as reduction in cell viability measured after 5 days by MTT assay. The following applies: time 5 day. The series is classed as toxicity, cell-based. A general note: Formazan colour is commonly taken as a measure of viable cells.
Series [4] can be described thus: Selectivity index, ratio of CC50 for cytotoxicity against human MT4 cells to EC50 for antiviral activity against wild type HIV-1 IIIB infected in human MT4 cells. The series is classed as toxicity, cell-based. The settings on record: read-out: Ratio CC50/EC50.
Series [5] is described as follows: Selectivity index, ratio of CC50 for cytotoxicity against human MT4 cells to EC50 for antiviral activity against HIV-1 RES056 harboring RT K103N/Y181C double mutant infected in human MT4 cells. The following applies: read-out: Ratio CC50/EC50. It is filed as toxicity, cell-based.

Structures are written as SMILES.

Take `Cc1cc(-c2ccc(C#N)cc2)cc(C)c1Oc1nc(Nc2ccc(C#N)nc2)nc2ccsc12`: the EC50 in series [1] was found to be 7.62 nM; in series [2], 0.381 µM. Moreover, the CC50 at 120 h in series [3] came out at 214 µM. In addition, the selectivity ratio in series [4] is 28100; in series [5], 563.
For the compound `N#C/C=C/c1cc(F)c(Oc2nc(Nc3ccc(C#N)nc3)nc3c2COC3)c(F)c1`, the EC50 is 5.77 nM in series [1] and 12.2 µM in series [2]. Besides, in series [3], the CC50 at 120 h turned out to be 243 µM. The selectivity ratio is 42100 in series [4] and 20 in series [5].
For `Cc1cc(-c2ccc(F)cc2)cc(C)c1Oc1nc(Nc2ccc(C#N)nc2)nc2ccsc12` the same measures were 451 nM, above 6.13 µM, 6.13 µM, 14 and below 1.
In the same order, the values of `Cc1cc(C#N)cc(C)c1Oc1nc(NC2CCN(c3ccc(N)cc3F)CC2)nc2ccsc12` are 40.4 nM, above 12.2 µM, 12.1 µM, 300 and below 1.
In the same order, the values of `N#C/C=C/c1cc(F)c(Oc2nc(Nc3ccc(C#N)nc3)nc3sccc23)c(F)c1` are 6.98 nM, 7.55 µM, 12.8 µM, 1840 and 1.7.
Turning to `N#C/C=C/c1cc(F)c(Oc2nc(Nc3ccc(C#N)c(F)c3)nc3ccsc23)c(F)c1`, the EC50 in series [1] came out at 109 nM; in series [2], 6.71 µM. The CC50 at 120 h in series [3] turned out to be 96 µM. For the same compound, the selectivity ratio in series [4] turned out to be 878; in series [5], 14.
For `Cc1cc(/C=C/C#N)cc(C)c1Oc1nc(NC2CCN(c3ccc(NS(N)(=O)=O)cc3F)CC2)nc2ccsc12` the same measures were 7.46 nM, 0.832 µM, 21.7 µM, 2910 and 26.
On to `Cc1cc(C#N)cc(C)c1Oc1nc(NC2CCN(c3ccc(NS(N)(=O)=O)cc3F)CC2)nc2ccsc12`, for which the EC50 turned out to be 22.9 nM in series [1] and 4.93 µM in series [2]. Further, the CC50 at 120 h in series [3] was 24.7 µM. The selectivity ratio amounted to 1080 in series [4] and 5 in series [5].
For `Cc1cc(-c2ccc(C#N)cc2)cc(C)c1Oc1nc(Nc2ccc(C#N)c(F)c2)nc2ccsc12` the same measures were 711 nM, 6.35 µM, 71.5 µM, 101 and 11.
In the same order, the values of `Cc1cc(C#N)cc(C)c1Oc1nc(NC2CCN(c3ccc([N+](=O)[O-])cc3F)CC2)nc2sccc12` are 40 nM, above 37.4 µM, 37.4 µM, 935 and below 1.
In the same order, the values of `Cc1cc(C#N)cc(C)c1Oc1nc(NC2CCN(c3ccc(N)cc3F)CC2)nc2sccc12` are 20.7 nM, 2.6 µM, 26.9 µM, 1300 and 10.
For the compound `Cc1cc(-c2ccc(C#N)cc2)cc(C)c1Oc1nc(Nc2ccc(C#N)nc2)nc2sccc12`, the EC50 is 10.9 nM in series [1] and 1.53 µM in series [2]. The CC50 at 120 h in series [3] is 181 µM. Moreover, the selectivity ratio in series [4] was 16600; in series [5] it was 119.
In the same order, the values of `N#C/C=C/c1cc(F)c(Oc2nc(Nc3ccc(C#N)c(F)c3)nc3sccc23)c(F)c1` are 52.4 nM, above 117 µM, 117 µM, 2240 and below 1.
For `Cc1cc(/C=C/C#N)cc(C)c1Oc1nc(NC2CCN(c3ccc([N+](=O)[O-])cc3F)CC2)nc2ccsc12` the same measures were 140 nM, above 14.2 µM, 14.2 µM, 101 and below 1.
On to `Cc1cc(/C=C/C#N)cc(C)c1Oc1nc(Nc2ccc(C#N)nc2)nc2cc[nH]c12`, for which the EC50 is 1630 nM in series [1] and above 7.94 µM in series [2]. In addition, in series [3], the CC50 at 120 h was found to be 7.94 µM. The selectivity ratio in series [4] was 5; in series [5], below 1.
For `Cc1cc(C#N)cc(C)c1Oc1nc(NC2CCN(c3ccc([N+](=O)[O-])cc3)CC2)nc2sccc12` the same measures were 20.6 nM, 53.8 µM, above 249 µM, above 12100 and above 5.
For `Cc1cc(-c2ccc(F)cc2)cc(C)c1Oc1nc(Nc2ccc(C#N)c(F)c2)nc2sccc12`, the EC50 in series [1] was 583 nM; in series [2], 11.1 µM. The CC50 at 120 h in series [3] is 28.9 µM. For the same compound, the selectivity ratio turned out to be 50 in series [4] and 2.6 in series [5].
For `Cc1cc(/C=C/C#N)cc(C)c1Oc1nc(NC2CCN(c3c(F)cc([N+](=O)[O-])cc3F)CC2)nc2sccc12`, the EC50 in series [1] stood at 68 nM; in series [2] it was 27.4 µM. In addition, in series [3], the CC50 at 120 h is above 222 µM. Moreover, the selectivity ratio in series [4] is above 3260; in series [5], above 8.
For `Cc1cc(/C=C/C#N)cc(C)c1Oc1nc(NC2CCN(c3ccc(N)cc3F)CC2)nc2sccc12` the same measures were 32.5 nM, 1.06 µM, 13.6 µM, 418 and 13.
For `Cc1cc(C#N)cc(C)c1Oc1nc(NC2CCN(c3c(F)cc([N+](=O)[O-])cc3F)CC2)nc2ccsc12` the same measures were 57 nM, above 30.3 µM, 740 µM, 12900 and below 1.
In the case of `Cc1cc(-c2ccc(C#N)cc2)cc(C)c1Oc1nc(Nc2ccc(C#N)c(F)c2)nc2sccc12`, the EC50 in series [1] is 84.7 nM; in series [2] it was 0.493 µM. In addition, the CC50 at 120 h in series [3] is above 254 µM. Also, the selectivity ratio was above 3010 in series [4] and above 517 in series [5].
In the same order, the values of `Cc1cc(/C=C/C#N)cc(C)c1Oc1nc(Nc2ccc(C#N)c(F)c2)nc2cc[nH]c12` are 4470 nM, 45.8 µM, 188 µM, 42 and 4.1.
For `Cc1cc(C#N)cc(C)c1Oc1nc(NC2CCN(c3c(F)cc(N)cc3F)CC2)nc2sccc12` the same measures were 32.5 nM, above 5.45 µM, 5.45 µM, 168 and below 1.
For `Cc1cc(C#N)cc(C)c1Oc1nc(NC2CCN(c3ccc(NS(N)(=O)=O)cc3F)CC2)nc2sccc12` the same measures were 7.9 nM, 3.41 µM, 21.5 µM, 2720 and 6.
As to `N#C/C=C/c1cc(F)c(Oc2nc(Nc3ccc(C#N)nc3)nc3cc[nH]c23)c(F)c1`, the results for the EC50 in series [1] and in series [2] were 147 nM and above 29 µM, respectively. Moreover, the CC50 at 120 h in series [3] is 29 µM. Further, the values for the selectivity ratio in series [4] and in series [5] were 197 and below 1, respectively.

A word on the EC50: it is the concentration giving half of the maximal effect. As usually defined, the CC50 is the concentration at which the toxic effect on the cells reaches its halfway point.
